Data from patent US6821735B1, “Protein involved in abscisic acid signalling” (Plant BioScience Limited, priority 1997, dated 2004).
“Also recorded” adds a separate entry of the source. Where two headings read alike, the source gives them in different places.

What was measured:
[1] = system: inward-rectifying K^+ channels of guard cells; assay type: cell-based, N. benthamiana
[2] = cited from earlier work
[3] = system: Xenopus Ca^2+-dependent Cl^− channels; experiment: ABA response of Xenopus oocytes injected with N. tabacum poly(A)+ RNA, two-electrode voltage clamp; assay type: cell-based, Xenopus laevis
[4] = system: inward-rectifying K^+ channels of guard cells; settings: stated as normal; cited from earlier work
[5] = system: outward-rectifying K^+ channels of guard cells; experiment: Guard cell voltage clamp: ABA response of the outward-rectifying K^+ current (IK,out); assay type: cell-based, Nicotiana
SYR transcript = experiment: Northern analysis of SYR expression in leaves of treated plants
[6] = system: anion current of guard cells; assay type: cell-based, N. benthamiana
[7] = system: inward-rectifying K^+ currents of guard cells; assay type: cell-based, V. faba; settings: after 300 s
[8] = system: oocyte endogenous voltage-dependent K^+ channels; experiment: Voltage clamp of oocytes expressing SYR: current characterization and channel inhibitors; assay type: cell-based, Xenopus laevis; design: highest maximum value of outward-rectifying current: unit not given here; settings: for reduction of the current in SYR expressing oocytes: toxin in Ringer at Table 3 concentration (TEA 30 mM, niflumic acid 1 mM)
[9] = system: current endogenous to the oocytes; experiment: Uninjected oocytes in 25 mM K^+: effect of channel inhibitors; settings: 25 mM K^+ in the bath
[10] = Rabbit antisera raised against SYR peptides, tested by Western blot; assay type: in vivo; settings: bleeds after injection
Procedure: Both, the purchased (SP1) and the purified (SP2) peptides were injected, each into two rabbits at the UKC animal facilities (University of Kent, Canterbury). Blood sera were taken after four weeks and the rabbits were injected a second time, After a second bleed two to three weeks later, the rabbits were injected a third time and killed while collecting blood from the heart two weeks later. SDS—PAGE and Western Blotting
Prior to hybridization with an antibody, the membrane was blocked with 1×TBS (0.15 M NaCl, 3 mM KCl, 25 mM Tris pH 7.4) and 5% Marvel (milk powder) for 1 h. Antibody hybridization occurred in the same buffer (1×TBS, 5% Marvel) plus 0.1% Tween and 0.1% azide overnight with a rabbit generated antibody with an estimated concentration of 1 ng/μl. The antibody solution was then poured off and stored in the fridge until needed again. The membrane was washed three times with 1×TBS and 0.1% Tween solution. […]

H440 yeast strain = experiment: Complementation of yeast strain H440 (SSO1 and SSO2 deleted) on galactose deficient medium; settings: H440(SYR) on galactose deficient medium

In the case of CC1=CC(=O)CC(C)(C)[C@@]1(O)/C=C/C(C)=C\C(=O)O [ABA, abscisic acid], the “inhibition of inward K^+ current in response to ABA” value [1] is reported as “about 40%”, the “inward-rectifier current in ABA” value [1] is reported as 24 % of the control and the “mean IK.in ABA normalized for IK.in before ABA” value ([1]; n=5) is reported as 46 % of the original current. The pKa [2] was 4.8, the “time for complete decay of the ABA-stimulated current” value ([3]; 20 μM ABA, mRNA injected oocyte) was ≤ 5 min and the “response to a second ABA application” value ([3]; 2 of the 3 ABA responsive cells) was “In neither case, a second response was detected”. The “increase of steady-state current evoked by ABA” value ([3]; at +60 mV, mRNA injected oocyte) was > 3 μA, the “number of cells showing the ABA response” value ([3]; of a total of 5 mRNA injected cells tested) was 3 cells and the “maximum amplitude of outward-rectifying Cl^− current in response to ABA” value ([3]; oocytes injected with N. tabacum poly(A)+ RNA) was 3.1 μA. For the same molecule, the “response of water injected oocytes” value ([3]; water injected oocytes, n=8) was “did not respond”, the “inactivation of the inward-rectifying K+ channel current normally caused by ABA” value [4] was 40-60% and the “stimulation of the outward-rectifier current” value ([5]; 20 M ABA, 10 mM K+ outside) was ~2 fold. For the same molecule, the “SYR transcript level in leaves” value (SYR transcript; plants treated by spraying, ABA 20 μM, IAA 30 min) was “increased; also recorded: transient induction”, the “time of highest amount of SYR transcript after beginning of treatment” value (SYR transcript; second experiment, total RNA) was 30 min and the “effect of ABA on instantaneous anion current of a control cell” value [6] was “four-fold increase”. The “stimulation of the Cl^− current amplitude” value [6] was 3 fold, the “ABA induced increase of instantaneous anion current, mean, normalized to before ABA” value ([6]; n=3) was 3.5 fold and the “inhibition of IK,in by ABA” value [7] was ~80%.

With [Ba+2] [Ba^2+] the “effect on the current in SYR expressing oocytes, in words” value [8] was “conversion of the instantaneous component into the time-dependent component”, the “reversibility of the toxin effect” value [8] was “Full recovery” and the “effect on the current of uninjected oocytes, in words” value [9] was “a time-dependent one arose”.

With CC[N+](CC)(CC)CC [TEA, tetraethyl ammonium] the “reversibility of the toxin effect” value ([8]; after wash-out) was “reversible”, the “reduction of the current in SYR expressing oocytes” value [8] was 50% and the “effect on the current of uninjected oocytes, in words” value [9] was “invisible”.

For O=C(O)c1cccnc1Nc1cccc(C(F)(F)F)c1 [niflumic acid], the “reversibility of the toxin effect” value ([8]; after wash-out) was “fully recovered”, the “reduction of the current in SYR expressing oocytes” value [8] was ~100% and the “effect on the current of uninjected oocytes, in words” value [9] was “abolished”.

In the case of CC(=O)[O-].[K+] [potassium acetate], the “induction of outward Cl^− currents by weak acid control” value ([3]; 20 μM substituted for ABA, mRNA injected oocytes) is reported as “no response was observed”.

For ω-conotoxin, the “effect on the current in SYR expressing oocytes, in words” value [8] was “no effect was detected”.

B1: Sp2: truncated Nt-Syr protein, amino acids 1-279 of SEQ ID NO:2, N-His-tagged (protein, listed as Nicotiana tabacum)
chain: MNDLFSGSFSRFRADDQSDSHAIEMGDITGGVNLDKFFEDVEAIKDELKGLEKIYSQLQSSHEKSKTLHNAKAVKDLRSNMDNDVSMALKKAKFIKVRLEALDRSNAANRSLPGCGPGSSSDRTRTSVVNGLRKKLQESMNQFNELRQKMASEYRETVQRRYYTVTGENPDEAVLDTLISTGQSETFLQKAIQEQGRGQVMDTVMEIQERHEAVKELERNLKELHQVFLDMAVLVESQGAQLDDIESQVNRANSFVRGGAQQLQVARKHQKNTRKWTCF
modifications: N-terminal His tag
For B1, the “ABA sensitivity of inward-rectifying K+ current after Sp2 loading” value [1] was “complete loss of sensitivity to ABA”, the “recognition of the peptide by rabbit blood sera” value [10] was “did cross-react with the peptide” and the “ABA sensitivity of outward-rectifying K+ current after Sp2 loading” value ([5]; microelectrodes containing 20 or 100 µM Sp2, 20 µM ABA) was “complete loss of sensitivity to ABA”.

B2: SYR: syntaxin-related protein of N. tabacum, 300 amino acids, SEQ ID NO:2 (protein, listed as Nicotiana tabacum)
chain: MNDLFSGSFSRFRADDQSDSHAIEMGDITGGVNLDKFFEDVEAIKDELKGLEKIYSQLQSSHEKSKTLHNAKAVKDLRSNMDNDVSMALKKAKFIKVRLEALDRSNAANRSLPGCGPGSSSDRTRTSVVNGLRKKLQESMNQFNELRQKMASEYRETVQRRYYTVTGENPDEAVLDTLISTGQSETFLQKAIQEQGRGQVMDTVMEIQERHEAVKELERNLKELHQVFLDMAVLVESQGAQLDDIESQVNRANSFVRGGAQQLQVARKHQKNTRKWTCFAIILLLIIILVVVLSIQPWKK
With B2 the “half time of increase in outward-rectifying current after impalement” value ([8]; 50 ng cRNA injected, +60 mV) was 20 min, the “highest maximum value of outward-rectifying current” value ([8]; 50 ng cRNA injected, +60 mV) was 3 and the “reversal potential of the outward-rectifying current” value ([8]; [K^+]o 25 mM) was “around −35 mV”. For the same molecule, the “suppression of the SSO1/SSO2 mutation” value (H440 yeast strain) was “could not suppress this mutation”.
